Measurements from patent US8486693B2, “Modified dendritic cells having enhanced survival and immunogenicity and related compositions and methods” (Bellicum Pharmaceuticals, Inc., priority 2006, dated 2013).

System: NF-.kappa.B
Assay: NF-.kappa.B/SEAP reporter assay in Jurkat-TAg cells (Example 10, iAkt)
Assay type: cell-based, human
Procedure: Jurkat-TAg cells in logarithmic-phase growth were electroporated ([…], 250 V; Gene Pulser II (BIO-RAD)) with expression plasmids and the NF-.kappa.B-SEAP reporter plasmid. After 24 hours, transfected cells were stimulated with sub-optimal levels of the phorbol ester PMA (5 ng/ml) along with log dilutions of the heterodimerizing CID, AP22783, and additional treatments. After an additional 24 hours, supernatants were assayed for SEAP activity.
Two key requirements for efficient synthetic regulation of a biological event are highly specific conditional dependency and low background. […] Therefore, in order to optimize iAkt, an NF-.kappa.B-responsive secreted alkaline phosphatase (SEAP) reporter plasmid was used as an assay for Akt activation.
Briefly, the human T cell line, Jurkat-TAg, was cotransfected with reporter plasmid, NF-.kappa.B/SEAP, along with constitutively active M-Akt expression vector or empty control vector. Twenty-four hours after transfection, cells were divided into aliquots that were stimulated with sub-optimal levels (5 ng/ml) of the phorbol ester, PMA, or were untreated. After an additional 24 hours, SEAP activity was measured. Although Akt activity alone was insufficient to induce measurable NF-.kappa.B activity, M-Akt expression potentiated (by 3-4 fold) PKC-induced NF-.kappa.B activity, consistent with multiple reports. […]

| Molecule | NF-.kappa.B activation by M-Akt plus PKC in presence of inhibitor (LY294002 5 μM, wortmannin 1 μM, R0318220 1 μM) | NF-.kappa.B induction on CID (AP22783)-mediated membrane recruitment via M-FRB12 (5 ng/ml PMA, log dilutions of AP22783) |
| --- | --- | --- |
| Cn1cc(C2=C(c3cn(CCCSC(=N)N)c4ccccc34)C(=O)NC2=O)c2ccccc21 [R0318220] | complete inhibition of NF-.kappa.B | – |
| Akt.KM: kinase-dead mutant (K179M) chimeric Akt (protein, UniProt P31750 1-480, looked up, variant K179M, chimeric) RAC-alpha …: MNDVAIVKEGWLHKRGEYIKTWRPRYFLLKNDGTFIGYKERPQDVDQRESPLNNFSVAQCQLMKTERPRPNTFIIRCLQWTTVIERTFHVETPEEREEWATAIQTVADGLKRQEEETMDFRSGSPSDNSGAEEMEVSLAKPKHRVTMNEFEYLKLLGKGTFGKVILVKEKATGRYYAMMILKKEVIVAKDEVAHTLTENRVLQNSRHPFLTALKYSFQTHDRLCFVMEYANGGELFFHLSRERVFSEDRARFYGAEIVSALDYLHSEKNVVYRDLKLENLMLDKDGHIKITDFGLCKEGIKDGATMKTFCGTPEYLAPEVLEDNDYGRAVDWWGLGVVMYEMMCGRLPFYNQDHEKLFELILMEEIRFPRTLGPEAKSLLSGLLKKDPTQRLGGGSEDAKEIMQHRFFANIVWQDVYEKKLSPPFKPQVTSETDTRYFDEEFTAQMITITPPDQDDSMECVDSERRPHFPQFSYSASGTA | – | no detectable effect on NF-.kappa.B induction over PMA alone |
